Values quoted from earlier work as cited in US7879804B2, “Blood pressure lowering peptides in a single enzymatic step” (DSM IP Assets B.V., priority 2004, dated 2011).

What was measured:
[1] = tested on: spontaneously hypertensive rats; conditions: Nakamura et al. 1995
ACE = ACE (Homo sapiens, UniProt P12821); conditions: for ACE inhibiting activities: in vitro, as reported in the literature
ACE, sequence (P12821 30-1306, species assumed): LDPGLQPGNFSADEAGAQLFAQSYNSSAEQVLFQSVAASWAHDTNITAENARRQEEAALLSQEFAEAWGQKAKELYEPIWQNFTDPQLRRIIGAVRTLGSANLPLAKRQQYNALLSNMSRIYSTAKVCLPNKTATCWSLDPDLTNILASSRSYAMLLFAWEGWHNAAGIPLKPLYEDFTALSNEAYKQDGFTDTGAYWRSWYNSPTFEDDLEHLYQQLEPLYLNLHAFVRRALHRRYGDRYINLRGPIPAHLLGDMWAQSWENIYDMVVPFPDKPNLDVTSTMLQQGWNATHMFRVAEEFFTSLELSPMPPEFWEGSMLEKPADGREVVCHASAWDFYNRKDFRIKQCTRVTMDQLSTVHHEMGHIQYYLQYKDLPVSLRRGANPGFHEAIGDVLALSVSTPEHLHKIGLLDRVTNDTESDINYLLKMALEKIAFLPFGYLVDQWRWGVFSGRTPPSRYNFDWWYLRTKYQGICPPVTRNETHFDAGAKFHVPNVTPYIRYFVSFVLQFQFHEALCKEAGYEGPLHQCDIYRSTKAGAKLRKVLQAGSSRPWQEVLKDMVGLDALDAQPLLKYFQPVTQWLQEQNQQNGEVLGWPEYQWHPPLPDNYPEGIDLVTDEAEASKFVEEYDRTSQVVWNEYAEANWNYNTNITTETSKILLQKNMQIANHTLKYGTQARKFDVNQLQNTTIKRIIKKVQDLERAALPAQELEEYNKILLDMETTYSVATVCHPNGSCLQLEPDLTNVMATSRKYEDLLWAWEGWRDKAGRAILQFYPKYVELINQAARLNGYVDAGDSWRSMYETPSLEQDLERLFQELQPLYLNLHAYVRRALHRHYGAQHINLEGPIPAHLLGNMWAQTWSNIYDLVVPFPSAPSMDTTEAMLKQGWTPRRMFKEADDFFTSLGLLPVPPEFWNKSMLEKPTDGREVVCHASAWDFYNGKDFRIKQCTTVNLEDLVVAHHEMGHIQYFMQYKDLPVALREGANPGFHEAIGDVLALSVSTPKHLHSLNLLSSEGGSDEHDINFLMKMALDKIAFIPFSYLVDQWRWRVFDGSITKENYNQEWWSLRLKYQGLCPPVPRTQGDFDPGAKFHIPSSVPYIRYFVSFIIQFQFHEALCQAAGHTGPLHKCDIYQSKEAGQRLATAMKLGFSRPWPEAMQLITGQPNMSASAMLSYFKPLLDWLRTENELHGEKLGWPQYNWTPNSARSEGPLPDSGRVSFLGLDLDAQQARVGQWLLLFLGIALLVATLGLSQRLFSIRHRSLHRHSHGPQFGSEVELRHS

Row | Substance | antihypertensive effects [1] | ACE inhibiting activities (ACE) | IC50 (ACE; ACE inhibition, reported by EP 0 583 074)
1 | Ile-Pro-Pro [IPP] | confirmed | Strong | –
2 | Leu-Pro-Pro [LPP] | – | Strong | –
3 | Val-Pro-Pro [VPP] | confirmed | Strong | 9 µM
